Data set [1] deals with T1, GLP-1R (GLP-1 receptor) (Homo sapiens, UniProt P43220).
T1 construct: expressed in transfected cells
The experiment in a line: Inhibition of GLP-1-stimulated cAMP production in CHO cells expressing GLP-1R. The format is cell-based. The settings on record: human GLP-1R. From the text: Transfected Chinese hamster ovary (CHO) cell lines were acquired and maintained as previously described, [20]. These included separate cell lines stably expressing human GCGR (hGCGR), mouse GCGR, rhesus GGCR, glucose-dependent insulinotropic peptide receptor (GIPR), GLP-1 receptor (GLP-1R), pituitary adenylate cyclase-activating polypeptide receptor type 1 (PAC1R), and vasoactive adenylate cyclase-activating polypeptide receptor type 2 (VPAC2R). Inhibition of glucagon binding to hGCGR was assayed in cell membranes prepared from the line of CHO cells that expressed the hGCGR. Functional antagonism was assayed by measuring the production of cAMP in intact CHO cells stimulated by agonists specific for their cognate receptors (i.e., glucagon for GCGR-expressing cell lines, GIP for the GIPR-expressing line, etc.). Primary human hepatocytes were obtained from In Vitro Technologies (Baltimore, MD) and glucagon-stimulated glycogenolysis was studied in these as previously described.

A short description of data set [2]: Pharmacokinetics / plasma GRA1 concentrations in hGCGR mice. Type of data set: in vivo, hGCGR mouse. Conditions: single oral dose 2 mg/kg.
The test system of data set [3] is hGCGR HFD/STZ mice. Put plainly: Antihyperglycemic efficacy in hGCGR HFD/STZ mice (acute, chronic, combination with des-fluoro-sitagliptin). Type of data set: in vivo, hGCGR mouse. An excerpt:
The present study made use of a line of hGCGR-expressing mouse (“hGCGR mouse”) generated previously by substituting the hGCGR gene for the mouse GCGR gene. These mice were crossed with C57BL/6J.ob/+ mice (Jackson Laboratories, Bar Harbor, ME) to obtain an hGCGR.ob/+ mouse line. The hGCGR.ob/+ mice were then intercrossed to obtain hGCGR.ob/ob, hGCGR.ob/+, and hGCGR.+/+ mice (with the hGCGR.ob/+ and hGCGR.+/+ mice serving as littermate controls). […] obese (DIO) hGCGR mice were generated by maintaining hGCGR mice on a high-fat diet (HFD) in which 45–60% of calories were in fat (Product S3282, Bio-Serv, Frenchtown, NJ). High-fat-diet-streptozotocin-treated (HFD/STZ) diabetic mice were generated in-house as previously described.
Acute glucose lowering was studied in non-fasted hGCGR.ob/ob mice and HFD/STZ mice administered single doses p.o. of 1, 3 and 10 mg/kg GRA1 in 10 mL/kg 0.5% aqueous methylcellulose. Animals were fasted during the interval between dosing and the final blood glucose measurement. Glucose was measured in blood from tail bleeds using a OneTouch glucometer. In the experiments with hGCGR HFD/STZ mice, treatment groups were matched with respect to body weight and blood glucose levels.
Animals were dosed chronically with GRA1 and the DPP-4 inhibitor des-fluoro-sitagliptin by administering these agents as food admixtures. The admixtures were prepared in-house and by Research Diets (New Brunswick, NJ), with drug concentrations adjusted weekly on the basis of average food consumption and animal weight to provide targeted daily doses. In the GRA1 experiments, the targeted doses were 3, 6, 10, and 30 mg/kg•day. In des-fluoro-sitagliptin experiments, the targeted dose was 200 mg/kg•day, a relatively high amount necessary because this compound has a half-life in rodents of 1–2 h.
Plasma glucagon and active GLP-1 were measured using commercial ELISA kits (Linco Research Immunoassay, St. Charles, MO). […] Plasma insulin was determined by ELISA with a commercial kit (ALPCO Diagnostics, Windham, NH). Plasma concentrations of glycated hemoglobin A1c (HbA1c) were measured using a Micromat II test kit from Bio-Rad Laboratories (Hercules, CA). Total cholesterol, low-density lipoprotein cholesterol (LDL-c) and non-LDL-c, and aspartate aminotransferase were measured using a Roche P Modular Clinical Chemistry analyzer (Indianapolis, IN).
Figure 5 GRA1 lowers glucose in hGCGR HFD/STZ mice and further enhances the efficacy of a DPP-4 inhibitor. (A) Mean (±SEM) blood glucose hGCGR HFD/STZ mice treated with a single dose of 1, 3, or 10 mg/kg GRA1. (B) Non-fasted blood glucose concentrations in hGCGR HFD/STZ mice treated for 6 weeks with 10 mg/kg·day GRA1, 200 mg/kg·day des-fluoro-sitagliptin (des-F-sita), or the two agents in combination. (Additional data from this study are in Table 4.) *p<0.05, **p<0.01, and ***p<0.001 versus HFD/STZ controls; ^#non-significant (p>0.05) versus non-STZ controls; n = 8–15 animals per group.

The structures appear in SMILES notation. Marks after values point to notes of the source that are not given here.

T1 sequence (P43220 24-463): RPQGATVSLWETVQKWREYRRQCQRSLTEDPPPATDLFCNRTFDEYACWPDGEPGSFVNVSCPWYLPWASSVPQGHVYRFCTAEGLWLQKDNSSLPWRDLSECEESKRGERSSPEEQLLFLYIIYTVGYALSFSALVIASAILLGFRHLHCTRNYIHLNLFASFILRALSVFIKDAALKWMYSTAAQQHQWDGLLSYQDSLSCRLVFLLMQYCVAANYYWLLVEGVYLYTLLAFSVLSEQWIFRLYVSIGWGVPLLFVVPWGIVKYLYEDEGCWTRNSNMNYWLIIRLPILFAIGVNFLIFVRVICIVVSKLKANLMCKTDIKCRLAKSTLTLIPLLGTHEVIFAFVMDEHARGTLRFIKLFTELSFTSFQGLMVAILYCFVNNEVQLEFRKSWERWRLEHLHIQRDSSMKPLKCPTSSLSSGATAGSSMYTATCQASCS

What is called IC50 is the point on the concentration scale where inhibition reaches its midpoint. Read a low IC50 as greater potency. Usually half-life stands for the time needed for the level to fall by half in the phase considered. The molecule `COc1ccc2cc(-c3cc(-c4cc(C(F)(F)F)ccc4F)nn3[C@@H](C)c3ccc(C(=O)NCCC(=O)O)cc3)ccc2c1` [GRA1, N-[4-((1S)-1-{3-(2-fluoro-5-trifluoromethylphenyl)-5-[6-methoxynaphth-2-yl]-1H-pyrazol-1-yl}ethyl)benzoyl]-β-alanine] gave a 50% inhibitory concentration (IC50) in data set [1] of 7.9 µM. For the same molecule, the half-life in data set [2] (mouse, plasma, read-out: Apparent plasma terminal half-life (converted)) is 408 min. In data set [2], the “Mean rate of absorption from the gut” value stood at 69% and the Route of excretion result is reported as “nearly all absorbed drug was subsequently excreted unchanged via the bile”. For the same molecule, the HbA1c in data set [3] (5 weeks of treatment, GRA1 10 mg/kg, Des-F-sita 200 mg/kg, control diet 6.1±0.4) amounted to 5.6±0.4%. Also, the “6-h fasting blood glucose” value in data set [3] (5 weeks of treatment, GRA1 10 mg/kg, Des-F-sita 200 mg/kg, control diet 323±33) was 297 ± 39 mg/dL. The “Antihyperglycemic effect during chronic dosing (non-fasted blood glucose)” value in data set [3] (6 weeks, GRA1 10 mg/kg·day, des-fluoro-sitagliptin 200 mg/kg·day) is “significant and sustained”. Besides, the “Liver Triglyceride” value in data set [3] (6 weeks, necropsy tissue, GRA1 10 mg/kg, Des-F-sita 200 mg/kg, control diet 143±10) came to 163 ± 11 µg/mg. Moreover, the Free fatty acid in data set [3] (6 weeks, terminal plasma, GRA1 10 mg/kg, Des-F-sita 200 mg/kg, control diet 1.4±0.2) is 1.3 ± 0.3 mM. In data set [3] (6 weeks, terminal plasma, GRA1 10 mg/kg, Des-F-sita 200 mg/kg, control diet 2.5±0.1), the “Active GLP-1” value amounted to 2.7 ± 0.1 pM. Also, in data set [3] (6 weeks, terminal plasma, GRA1 10 mg/kg, Des-F-sita 200 mg/kg, control diet 8.1±1.1), the “Inactive GLP-1” value was 8.6 ± 0.4 pM. Besides, the Plasma glucagon in data set [3] (6 weeks, terminal plasma, GRA1 10 mg/kg, Des-F-sita 200 mg/kg, control diet 133±21) is 209±24* pg/ml. The Triglyceride in data set [3] (6 weeks, terminal plasma, GRA1 10 mg/kg, Des-F-sita 200 mg/kg, control diet 184±26) is 145±22* mg/dL. Also, the “Blood glucose after single dose versus non-diabetic controls” value in data set [3] (single dose 10 mg/kg) is on record as “comparable to those observed in non-diabetic control animals for 24 h”. In addition, in data set [3] (single doses of 3 and 10 mg/kg), the “Effect on blood glucose, single dose” value was “reduced blood glucose significantly and substantially”.

Values taken from paper PMC3501516, “Anti-Diabetic Efficacy and Impact on Amino Acid Metabolism of GRA1, a Novel Small-Molecule Glucagon Receptor Antagonist” (PLoS ONE, 2012).
